Experimental data from ChEMBL document CHEMBL1123324, “Basically substituted ellipticine analogues as potential antitumor agents” (1986).
Active and inactive are the calls of the source. The rule behind the calls is not given here.

Tests used:
L1210 [1] = assay: Inhibitory effect against L1210 leukemia in tissue culture; type: functional; conditions: Mus musculus, read-out: ID50 (the source's name)
Nucleic Acid = assay: Concentration at which the fluorescence of an ethidium-DNA complex was reduced by 50%; type: nucleic-acid assay
HCT-8 [2] = assay: Inhibitory effect against HCT8 Human colon adenocarcinoma; type: functional; conditions: read-out: ID50 (the source's name)
L1210 [3] = assay: Inhibitory effect against L1210 leukemia in tissue culture; Inactive; type: functional, cell-based; conditions: Mus musculus
HCT-8 [4] = assay: Inhibitory effect against HCT8 Human colon adenocarcinoma; inactive; type: functional, cell-based

SMILES	IC50 (L1210 [1]) [nM]	C50 (Nucleic Acid) [nM]	IC50 (HCT-8 [2]) [nM]	ID50 (L1210 [3])	ID50 (HCT-8 [4])
Cc1c2cnccc2c(C)c2c1c1ccccc1n2C	430	454	–	–	–
Cc1c2ccncc2c(C)c2c1[nH]c1ccccc12 [ELLIPTECINE]	100	1040	260	–	–
CCN(CC)CCn1c2ccccc2c2c(C)c3cnccc3c(C)c21	190	106	80	–	–
Cc1c2cnccc2c(C)c2c1c1ccccc1n2CCCN(C)C	110	–	390	–	–
CCN(CC)C(=O)Cn1c2ccccc2c2c(C)c3cnccc3c(C)c21	–	–	–	inactive	–
Cc1c2cc[n+](C)cc2c(C)c2c1[nH]c1ccccc12	600	–	–	–	inactive
Cc1c2cnccc2c(C)c2c1c1ccccc1n2CCN1CCOCC1	320	440	100	–	–
Cc1c2cnccc2c(C)c2c1c1ccccc1n2CCN1CCCCC1	170	122	82	–	–
CCN(CC)CC[n+]1ccc2c(C)c3[nH]c4ccccc4c3c(C)c2c1	41	159	500	–	–
